Activity calls are given as the source filed them. Unless noted, the calls are words filed in the database; no cut-off is given here.
Experiments:
[1] = test system: Candida albicans; assay: fluconazole-resistant Candida strain growth inhibitors – CaCi-8 strain, dry powder, set 4, dose response (AID 488950); assay type: functional, organism-based
[2] = test system: Candida albicans; assay: single-agent antifungal toxicity in C. albicans – CaCi-2 strain, Alamar Blue, dry powder, set 2, counter-screen for antifungal drug resistance project, dose response (AID 488893); assay type: functional, organism-based
[3] = test system: Candida albicans; assay: single-agent toxicity toward C. albicans – CaCi-2 strain, no fluconazole, dry powder, set 4, counter-screen for reversing antifungal drug resistance, dose response (AID 488932); assay type: functional, organism-based
[4] = target: Keap1/Nrf2 (Homo sapiens, UniProt Q14145); assay: disruptors of Keap1 binding to Nrf2 peptide – biochemical, fluorescence polarization, cherry-picked samples, dose response (AID 588683)
Sequence of Keap1/Nrf2 (Q16236 whole entry): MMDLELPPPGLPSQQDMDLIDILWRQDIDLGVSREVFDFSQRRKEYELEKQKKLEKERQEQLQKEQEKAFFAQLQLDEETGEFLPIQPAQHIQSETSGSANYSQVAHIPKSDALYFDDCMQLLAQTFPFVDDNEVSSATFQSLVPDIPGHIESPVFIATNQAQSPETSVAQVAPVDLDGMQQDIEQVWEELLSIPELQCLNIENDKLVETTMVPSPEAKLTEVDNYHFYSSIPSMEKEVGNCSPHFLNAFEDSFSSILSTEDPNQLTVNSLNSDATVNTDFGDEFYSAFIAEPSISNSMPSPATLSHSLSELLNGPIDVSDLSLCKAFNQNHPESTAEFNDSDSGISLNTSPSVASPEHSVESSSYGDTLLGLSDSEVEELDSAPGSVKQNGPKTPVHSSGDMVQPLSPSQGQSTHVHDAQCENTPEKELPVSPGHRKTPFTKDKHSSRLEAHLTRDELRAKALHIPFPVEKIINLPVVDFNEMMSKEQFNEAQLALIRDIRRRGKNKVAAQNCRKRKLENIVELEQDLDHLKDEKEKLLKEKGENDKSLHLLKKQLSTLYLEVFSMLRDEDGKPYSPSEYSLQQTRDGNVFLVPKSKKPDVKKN
Sequence of Keap1/Nrf2 (Q14145 whole entry): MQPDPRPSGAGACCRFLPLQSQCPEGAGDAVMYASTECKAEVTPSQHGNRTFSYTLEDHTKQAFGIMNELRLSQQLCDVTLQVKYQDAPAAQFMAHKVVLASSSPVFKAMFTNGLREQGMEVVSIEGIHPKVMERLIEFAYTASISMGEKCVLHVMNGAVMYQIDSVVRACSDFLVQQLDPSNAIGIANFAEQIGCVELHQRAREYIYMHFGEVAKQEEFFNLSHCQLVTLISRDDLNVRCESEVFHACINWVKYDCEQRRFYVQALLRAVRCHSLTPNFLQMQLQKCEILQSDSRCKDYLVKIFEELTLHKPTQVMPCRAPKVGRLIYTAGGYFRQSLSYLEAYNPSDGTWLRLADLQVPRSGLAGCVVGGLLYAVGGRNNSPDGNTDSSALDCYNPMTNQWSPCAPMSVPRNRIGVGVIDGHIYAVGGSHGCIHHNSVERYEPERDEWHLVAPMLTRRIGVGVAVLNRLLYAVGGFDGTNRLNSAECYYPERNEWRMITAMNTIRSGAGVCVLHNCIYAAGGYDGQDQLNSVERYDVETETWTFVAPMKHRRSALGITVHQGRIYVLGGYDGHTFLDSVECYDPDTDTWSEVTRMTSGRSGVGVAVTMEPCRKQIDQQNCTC

[5] = target: T1, Neuropeptide Y receptor type 1 (Homo sapiens, UniProt P25929); assay type: functional;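 further: HEK293 cells with a CNG channel challenged with NPY then isoproterenol; potency as antagonist that reverses NPY suppression of cAMP signal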
T1 sequence (P25929 whole entry): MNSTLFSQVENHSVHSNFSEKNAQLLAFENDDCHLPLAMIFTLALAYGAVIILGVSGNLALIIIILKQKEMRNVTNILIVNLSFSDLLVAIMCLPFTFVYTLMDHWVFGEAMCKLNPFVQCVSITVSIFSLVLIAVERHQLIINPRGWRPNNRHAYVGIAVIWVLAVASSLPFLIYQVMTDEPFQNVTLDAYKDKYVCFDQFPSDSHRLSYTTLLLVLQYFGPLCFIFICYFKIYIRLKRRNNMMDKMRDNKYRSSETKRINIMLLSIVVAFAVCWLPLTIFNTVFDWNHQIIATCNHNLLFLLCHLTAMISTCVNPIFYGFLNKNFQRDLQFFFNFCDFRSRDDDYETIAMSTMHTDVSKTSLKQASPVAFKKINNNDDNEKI

[6] = target: T2, Neuropeptide Y receptor type 2 (Homo sapiens, UniProt P49146); assay type: functional, cell-based;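 further: HEK293 cells expressing the receptor and a CNG channel; stimulus was NPY near EC95 followed by isoproterenol to raise cAMP; antagonist potency measured as restoring cAMP signal that NPY suppresses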
T2 sequence (P49146 whole entry): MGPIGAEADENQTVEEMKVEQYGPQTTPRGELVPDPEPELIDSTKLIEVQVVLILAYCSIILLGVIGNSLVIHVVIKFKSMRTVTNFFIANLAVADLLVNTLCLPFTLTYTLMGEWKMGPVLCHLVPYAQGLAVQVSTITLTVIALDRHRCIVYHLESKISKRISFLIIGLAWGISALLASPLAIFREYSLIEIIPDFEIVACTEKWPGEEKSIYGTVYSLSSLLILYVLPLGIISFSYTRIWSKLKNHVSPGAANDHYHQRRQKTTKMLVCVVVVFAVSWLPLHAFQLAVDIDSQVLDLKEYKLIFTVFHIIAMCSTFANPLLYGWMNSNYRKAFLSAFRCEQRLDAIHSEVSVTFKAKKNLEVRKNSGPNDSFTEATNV

[7] = target: Phospholipase A2 (Homo sapiens, UniProt P04054); assay: phospholipase A2 activity inhibition – biochemical, set 2, counter-screen for ATG4B inhibitor project, dose response (AID 588586); assay type: functional
Sequence of Phospholipase A2 (P04054 whole entry): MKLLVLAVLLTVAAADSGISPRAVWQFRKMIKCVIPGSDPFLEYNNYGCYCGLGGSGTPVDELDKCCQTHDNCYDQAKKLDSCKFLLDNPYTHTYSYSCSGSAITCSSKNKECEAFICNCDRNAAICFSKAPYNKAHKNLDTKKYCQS

[8] = target: T3, Cysteine protease ATG4B (Homo sapiens, UniProt Q9Y4P1); assay: autophagin-1 cysteine protease inhibition – biochemical, fluorescence, set 2, dose response (AID 588584); assay type: functional
T3 sequence (Q9Y4P1 whole entry): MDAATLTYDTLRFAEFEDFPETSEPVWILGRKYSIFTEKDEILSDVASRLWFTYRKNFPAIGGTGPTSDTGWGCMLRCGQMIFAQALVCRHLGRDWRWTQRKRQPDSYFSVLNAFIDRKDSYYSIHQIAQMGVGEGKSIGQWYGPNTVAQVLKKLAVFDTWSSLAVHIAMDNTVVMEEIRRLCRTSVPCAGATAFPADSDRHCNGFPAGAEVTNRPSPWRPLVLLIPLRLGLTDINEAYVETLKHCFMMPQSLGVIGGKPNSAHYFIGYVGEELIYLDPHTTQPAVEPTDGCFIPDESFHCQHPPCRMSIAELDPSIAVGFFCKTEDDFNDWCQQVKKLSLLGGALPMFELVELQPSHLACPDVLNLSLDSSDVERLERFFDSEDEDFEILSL

[9] = test system: Candida albicans; assay: Candida growth reduction in fluconazole presence – CaCi-2 strain, Alamar Blue, dry powder, set 2, antifungal resistance reversal project, dose response (AID 488930); assay type: functional, organism-based
[10] = test system: Candida albicans; assay: C. albicans growth inhibition with fluconazole – CaCi-2 strain, Alamar Blue, dry powder, set 4, dose response (AID 488943); assay type: functional, organism-based
[11] = test system: Candida albicans; assay: resistant Candida growth with fluconazole co-treatment – CaCi-8 strain, Alamar Blue, dry powder, set 2, dose response (AID 488909); assay type: functional, organism-based

How did the AC50 [1] turn out when `COCCC(=O)N1CCN(c2ccnc3cc(Cl)ccc23)CC1` was run?
Its AC50 is 72.5 µM (active).

What about the AC50 [2] of the same compound?
The AC50 was > 260 µM (inactive).

And the AC50 [3]?
The AC50 was 136 µM (active).

For `O=c1cc(CN2CCCc3ccccc32)nc2sccn12`, which AC50 [4] is on record?
Its AC50 is 17.1 µM (active).

How did the IC50 [5] turn out when `Cc1ccccc1C(=O)c1cccn1CC(=O)NCCN1CCN(c2cccc(C)c2C)CC1` was run?
Its IC50 is 6.43 µM (active).

And the IC50 [6]?
The IC50 was 13.2 µM (not active).

What about the IC50 [7] of the same compound?
The IC50 was 17.7 µM (active).

And the IC50 [8]?
The IC50 was 25.3 µM (inactive).

How did the AC50 [1] turn out when `CC1CN(c2ccnc3cc(Cl)ccc23)CCN1C(=O)c1ccc(Cl)cc1` (configuration not stated) was run?
Its AC50 is 1.82 µM (active).

What about the AC50 [9] of the same compound?
Its AC50 is 0.645 µM (active).

What about the AC50 [10] of the same compound?
Its AC50 is 0.783 µM (active).

What about the AC50 [11] of the same compound?
Its AC50 is 6.14 µM (active).

Source: ChEMBL document CHEMBL1201862, “PubChem BioAssay data set” (2004)
